Data reported in patent publication US20220274938A1, “5-[(1S)-1-(4-BROMOPHENOXY)ETHYL]-2H-TETRAZOLE DERIVATIVES AND RELATED COMPOUNDS AS CLC-1 ION CHANNEL INHIBITORS FOR TREATING NEUROMUSCULAR DISORDERS” (NMD PHARMA A/S, priority 2019, published 2022).

What was measured:
Assay type in all cases: cell-based
CIC-1 ion channel = molecular target: T1, CIC-1 ion channel (Rattus norvegicus, UniProt P35524); experiment: Electrophysiological measurement (Gm, three micro-electrodes) of compound inhibition of CIC-1 in rat soleus muscle fibres; settings: approx. 30° C., four increasing compound concentrations, read-out: EC50 (inhibition of CIC-1 ion channel, reduction of Gm)
T1 construct: CIC-1 channels in native tissue of rat skeletal muscle fibres; from tissue; host or cells: whole soleus muscle of 12-14 week old Wistar rats
T1 sequence (P35524 1-994): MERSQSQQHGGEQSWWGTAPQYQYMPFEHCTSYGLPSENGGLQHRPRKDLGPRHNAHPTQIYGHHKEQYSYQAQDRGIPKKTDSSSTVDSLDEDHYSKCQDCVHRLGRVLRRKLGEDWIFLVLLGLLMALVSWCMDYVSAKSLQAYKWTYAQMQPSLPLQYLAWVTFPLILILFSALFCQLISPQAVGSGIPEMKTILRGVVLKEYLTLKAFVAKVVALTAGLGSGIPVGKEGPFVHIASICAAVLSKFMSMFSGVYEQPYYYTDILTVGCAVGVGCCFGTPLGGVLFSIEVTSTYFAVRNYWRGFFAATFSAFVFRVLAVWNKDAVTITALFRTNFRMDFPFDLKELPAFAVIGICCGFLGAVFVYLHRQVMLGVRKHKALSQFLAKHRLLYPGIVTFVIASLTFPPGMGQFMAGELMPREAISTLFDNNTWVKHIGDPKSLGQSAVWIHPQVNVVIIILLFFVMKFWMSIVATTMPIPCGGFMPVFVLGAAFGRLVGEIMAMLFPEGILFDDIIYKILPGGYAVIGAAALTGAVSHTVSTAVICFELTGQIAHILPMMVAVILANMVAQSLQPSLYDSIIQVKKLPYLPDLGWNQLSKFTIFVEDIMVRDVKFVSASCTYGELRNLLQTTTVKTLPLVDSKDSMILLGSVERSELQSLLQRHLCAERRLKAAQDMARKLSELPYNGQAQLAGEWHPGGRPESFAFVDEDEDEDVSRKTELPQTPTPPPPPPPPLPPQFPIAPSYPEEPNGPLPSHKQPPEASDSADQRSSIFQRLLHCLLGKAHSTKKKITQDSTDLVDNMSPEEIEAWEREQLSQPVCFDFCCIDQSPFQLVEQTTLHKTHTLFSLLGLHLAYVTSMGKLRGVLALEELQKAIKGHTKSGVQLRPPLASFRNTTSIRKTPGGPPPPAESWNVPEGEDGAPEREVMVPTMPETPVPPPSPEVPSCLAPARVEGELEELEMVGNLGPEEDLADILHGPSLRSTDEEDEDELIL
Source text: FIG. 1. […] Please note that the drawing illustrates only the impaled fibre although it is part of an intact muscle that contains many such fibres. All electrodes recorded the membrane potential of the fibre and the two peripheral electrodes were used to inject current (−30 nA, 50 ms). The electrodes were inserted with known inter-electrode distances (X1, X2 and X3). After insertion, current was passed first via the V1 electrode and then via the V3 electrode. The resulting deflections in the membrane voltage were measured by the other electrodes. The steady state deflections in membrane potential were measured and divided by the magnitude of the injected current (−30 nA) to obtain transfer resistances. These were next plotted against inter-electrode distances, and fitted to an exponential function (Panel B), from which Gm could be calculated using linear cable theory. The approach described in panel A and B, was repeated for several muscle fibres in the muscle during exposure at increasing concentrations of compound E-8, with approx. 10 fibres at each concentration. Average Gm at each concentration was plotted as a function of compound concentration in panel C, and fitted to a 4-parameter sigmoidal function from which the EC50 value for the compound was obtained (dashed line)
Apparent CIC-1 affinity was reported by the concentration of compound at which 50% of the compound's full inhibition of CIC-1 was observed (EC50).
CIC-1 Cl^− ion channels generate around 80% of the total membrane conductance (Gm) in resting skeletal muscle fibres of most animals including rat and human (Bretag, A H. Muscle chloride channels. Physiological Reviews, 1987, 67, 618-724). […] CIC-1 inhibition would in such recordings be reflected by a reduction of Gm.
Experimentally, Gm was measured in individual fibres of whole rat soleus muscles using a three micro-electrodes technique described in this example and in full detail elsewhere (Riisager et al., Determination of cable parameters in skeletal muscle fibres during repetitive firing of action potentials. Journal of Physiology, 2014, 592, 4417-4429). Briefly, intact rat soleus muscles were dissected out from 12-14 week old Wistar rats and placed in an experimental chamber that was perfused with a standard Krebs Ringer solution containing 122 mM NaCl, 25 mM NaHCO3, 2.8 mM KCl, 1.2 mM KH2PO4, 1.2 mM MgSO4, 1.3 mM CaCl2, 5.0 mM D-glucose. During experiments, the solution was kept at approx. 30° C. and continuously equilibrated with a mixture of 95% O2 and 5% CO2, pH˜7.4. The experimental chamber was placed in Nikon upright microscope that was used to visualize individual muscle fibres and the three electrodes (glass pipettes filled with 2 M potassium citrate). For Gm measurements, the electrodes were inserted into the same fibre with known inter-electrode distances of 0.35-0.5 mm (V1-V2, X1) and 1.1-1.5 mm (V1-V3, X3) (FIG. 1A). The membrane potential of the impaled muscle fibre was recorded by all electrodes. Two of the electrodes were furthermore used to inject 50 ms current pulses of −30 nA. […] The steady state voltage deflection at each distance was divided by the magnitude of current injected (−30 nA) and the resulting transfer resistances were plotted against inter-electrode distance and the data was fitted to a mono-exponential function from which Gm could be calculated using linear cable theory (FIG. 1B).
To establish a dose response relationship, Gm was first determined in 10 muscle fibres in the absence of compound and then at four increasing compound concentrations with Gm determinations in 5-10 fibres at each concentration. The average Gm values at each concentration were plotted against compound concentration and the data was fitted to sigmoidal function to obtain an EC50 value (FIG. 1C).

human CIC-1 channels = molecular target: T2, human CIC-1 channels (Homo sapiens, UniProt P35523); experiment: Automated patch-clamp on the human isoform of CIC-1 expressed in CHO cells; settings: compound added to the intracellular solution vs control cell patches, positive shift reflects inhibition
T2 construct: host or cells: CHO (Chinese hamster ovary) cells, cryopreserved, used directly after thawing
Experimental: The investigatory goal of these experiments was to evaluate how compounds affect the open probability and current amplitude of human CIC-1 channels expressed in CHO cells. Experiments were performed using an automated patch clamp system that allowed high throughput testing of whole cell patches together with both intracellular and extracellular addition of compound.
Automated whole cell patch clamp experiments were performed with the Qpatch 16 system (Sophion Bioscience, Ballerup, Denmark) at room temperature. Data acquisition and analysis were performed in the Qassay software (ver. 5.6, Odense).
To obtain tail currents, the membrane potential was stepped to −100 mV after each test voltage for 300 ms and then relaxed to −30 mV for 2 sec between sweeps (FIG. 3). I/V relationships for whole cell instant and steady state current amplitudes were obtained by plotting average current densities at the beginning and at the end of the 300 ms step against the membrane potential (FIG. 4).
In order to determine the relative overall open probability (Po), the instantaneous tail currents were normalized to the maximal tail current obtained following the most positive voltage step and plotted against the test voltage. Plots of normalized tail currents from each whole cell patch were then fitted to a Boltzmann function allowing determination of half activation voltages (V1/2, FIG. 5).
Osmolality adjusted to ˜320 using sucrose. Intracellular solutions contained: 80 mM CsF, 60 mM CsCl, 5/1 mM KOH/EGTA, 10 mM HEPES, 10 mM NaCl, pH adjusted to 7.2 with NaOH (2 M). Osmolality adjusted to ˜320 mOsm using sucrose.
Cells used in patch clamp experiments were Chinese hamster ovary cells (CHO) constitutively expressing human CIC-1 channels. The amino acid sequence encoded by the cDNA used to create this cell line was identical to the translated sequence for GenBank accession number NM_000083.2. Cells were produced by Charles River (Catalogue CT6175, Cleveland Ohio, USA) in a cryopreserved format. Experiments were performed on the cells directly after thawing (3×10^6 cells used in each experiment).
To evaluate the compound effect on CIC-1, when applied directly to the intracellular side of the cell membrane, the half activation voltage, V1/2, was determined from whole cell patches with compound added to the intracellular solution and then compared to V1/2 determined from control cell patches with only vehicle added to the intracellular solution. Additionally, the effect of extracellular added compound was evaluated by determine V1/2 and steady state current amplitudes before and after exchanging the extracellular solution to contain compound.
The difference in half activation voltage of CIC-1 channels, ΔV1/2, was determined as the difference between the cell patches treated intracellularly with compound and control cells patches and is reported in Table 4 below. A positive shift in ΔV1/2 is reflecting CIC-1 channel inhibition by the tested compound. P-values of <0.05 is considered significant.

[1] = system: isolated rat soleus muscles; experiment: Measurement of force in an in vitro model: isolated rat soleus nerve-muscle preparation with tubocurarine; settings: Rattus norvegicus, 40 min; 50 μM test compound, after 40 mins of compound exposure; 115 nM tubocurarine for 90 mins; read-out: Point increase (%) of initial force that was restored
Experimental: FIG. 2. […] Force traces from a representative muscle stimulated to contract in 1) control condition before addition of neuromuscular blocking agent, 2) the force response to stimulation after 90 minutes incubation with Tubocurarine. […] The traces presented in panel A (1, 2, 3), correspond to the dotted lines in panel B, respectively.
Recovery of force is quantified as the percentage of the force prior to tubocurarine that is recovered by the compound.
The current disclosure relates to compounds that inhibit CIC-1 ion channels and increase muscle excitability and thereby improve muscle function in clinical conditions where muscle activation is failing. Such conditions result in loss of contractile function of skeletal muscle, weakness and excessive fatigue. In this series of experiments the compounds were tested for their ability to restore contractile function of isolated rat muscle when the neuromuscular transmission had been compromised akin to neuromuscular disorders.
Experimentally, soleus muscles from 4-5 week old rats were isolated with the motor nerve remaining attached. The nerve-muscle preparations were mounted in experimental setups that enabled electrical stimulation of the motor nerve. Stimulation of the motor nerve led to activation of the muscle fibres and ensuing force production that was recorded. The nerve-muscle preparations were also in these experiments incubated in the standard Krebs Ringer (see example 5) and the solution was heated to 30° C. and continuously equilibrated with a mixture of 95% O2 and 5% CO2, pH˜7.4.
After mounting the nerve-muscle preparation in the experimental setup, the contractile function of the muscle was initially assessed under the control conditions (FIG. 2A). […] The experimental condition mimics the failing neuromuscular transmission in a range of neuromuscular disorders. After addition of tubocurarine the contractile force declined over the next 90 mins to 10-50% of the control force. 50 μM of the test compound was then added and the contractile force recovered despite the continued presence of tubocurarine. To quantify the ability of the compound to restore force the percentage of the initial force that was restored was determined after 40 mins of compound exposure (FIG. 2B) and the point increase is reported in Table 3.

T2 sequence (P35523 whole entry, canonical isoform): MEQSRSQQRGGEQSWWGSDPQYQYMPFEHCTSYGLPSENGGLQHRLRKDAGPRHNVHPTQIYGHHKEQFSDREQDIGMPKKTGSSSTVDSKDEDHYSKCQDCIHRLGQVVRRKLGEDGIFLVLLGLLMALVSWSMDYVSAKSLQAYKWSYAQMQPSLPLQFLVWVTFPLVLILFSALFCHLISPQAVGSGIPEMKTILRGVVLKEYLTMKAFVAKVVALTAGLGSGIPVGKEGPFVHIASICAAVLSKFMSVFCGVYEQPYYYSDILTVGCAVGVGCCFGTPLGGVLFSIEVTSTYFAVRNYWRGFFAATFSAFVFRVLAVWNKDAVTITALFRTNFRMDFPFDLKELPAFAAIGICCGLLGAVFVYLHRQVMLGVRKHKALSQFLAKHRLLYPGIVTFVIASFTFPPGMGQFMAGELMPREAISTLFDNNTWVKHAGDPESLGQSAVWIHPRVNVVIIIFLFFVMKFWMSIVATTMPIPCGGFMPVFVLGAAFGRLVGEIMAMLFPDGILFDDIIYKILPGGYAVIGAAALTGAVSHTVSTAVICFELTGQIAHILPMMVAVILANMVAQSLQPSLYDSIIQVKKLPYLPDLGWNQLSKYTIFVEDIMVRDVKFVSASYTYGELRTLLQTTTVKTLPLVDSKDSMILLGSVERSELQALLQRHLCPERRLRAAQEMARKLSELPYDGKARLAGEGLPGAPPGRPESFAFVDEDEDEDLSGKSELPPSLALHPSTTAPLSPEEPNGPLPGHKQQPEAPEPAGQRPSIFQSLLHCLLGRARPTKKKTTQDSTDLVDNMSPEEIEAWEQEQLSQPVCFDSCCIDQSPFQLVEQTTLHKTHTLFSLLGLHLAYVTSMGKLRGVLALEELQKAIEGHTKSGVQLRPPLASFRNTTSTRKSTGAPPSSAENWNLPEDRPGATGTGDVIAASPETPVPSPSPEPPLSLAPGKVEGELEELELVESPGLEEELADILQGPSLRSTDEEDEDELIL

EC50 (CIC-1 ion channel)	ΔV1/2 (difference in half activation voltage of CIC-1 channels) (human CIC-1 channels)	Compound	activation at 50 µM [1]
2.2 µM	–	C/C(=N\O)NC(=O)[C@@H](Oc1ccc(Br)cc1F)C(C)C [Compound A-4, (2S)-2-(4-bromo-2-fluorophenoxy)-N-[1(hydroxyimino)ethyl]-3-methylbutanamide]	–
–	6.2 mV	C[C@H](Oc1ccc(Br)cc1Br)C(=O)NC#N [Compound B-2, (2S)-N-cyano-2-(2,4-dibromophenoxy)propanamide]	–
6 µM	–	C[C@H](Oc1ccc(Br)cc1-c1ccon1)c1nnn[nH]1 [Compound E-7]	–
19.9 µM	–	C[C@H](Oc1ccc(Cl)cc1)c1nnn[nH]1 [Compound E-15, 5-[(1S)-1-(4-chlorophenoxy)ethyl]-1H-1,2,3,4-tetrazole]	–
11.5 µM	–	CC(C)ONC(=O)[C@H](C)Oc1ccc(Cl)cc1 [Compound C-84, (2S)-2-(4-chlorophenoxy)-N-(propan-2-yloxy)propanamide]	–
2 µM	–	C[C@H](Oc1ccc(Cl)cc1)C(=O)NOCC1CCC1 [Compound C-75, (2S)-2-(4-chlorophenoxy)-N-(cyclobutylmethoxy)propanamide]	36%
3.1 µM	–	CONC(=O)[C@H](C)Oc1ccc(Br)cc1F [Compound C-64, (2S)-2-(4-bromo-2-fluorophenoxy)-N-methoxypropanamide]	24%
10.1 µM	–	CONC(=O)[C@H](C)Oc1ccc(Cl)cc1 [Compound C-85, (2S)-2-(4-chlorophenoxy)-N-methoxypropanamide]	45%
7.8 µM	–	CC(=O)NCCON(C(C)=O)C(=O)[C@H](C)Oc1ccc(Cl)cc1 [Compound C-22, (2S)-N-acetyl-2-(4-chlorophenoxy)-N-(2-acetamidoethoxy)propanamide]	22%
3.4 µM	–	C[C@H](Oc1ccc(Cl)cc1)C(=O)NOCC1CC1 [Compound C-74, (2S)-2-(4-chlorophenoxy)-N-(cyclopropylmethoxy)propanamide]	22%
2 µM	–	CC(=NO)NC(=O)[C@H](C)Oc1ccc(Br)cc1 [Compound A-6, (2S)-2-(4-bromophenoxy)-N-[1-(hydroxyimino)ethyl]propanamide]	–
4.6 µM	–	C[C@H](Oc1ccc(Cl)cc1)C(=O)NOC1CCCC1 [Compound C-70, (2S)-2-(4-chlorophenoxy)-N-(cyclopentyloxy)propanamide]	–
3.5 µM	–	CCCONC(=O)[C@H](C)Oc1ccc(Cl)cc1 [Compound C-83, (2S)-2-(4-chlorophenoxy)-N-propoxypropanamide]	–
9.7 µM	–	CCONC(=O)[C@H](C)Oc1ccc(Cl)cc1 [Compound C-82, (2S)-2-(4-chlorophenoxy)-N-ethoxypropanamide]	–
3.1 µM	–	COC(=O)CONC(=O)[C@H](C)Oc1ccc(Cl)cc1 [Compound C-78, methyl 2-{[(2S)-2-(4-chlorophenoxy)propanamido]oxy}acetate]	41%
